Results reported in US20260015350A1, “AZAQUINAZOLINE PAN-KRAS INHIBITORS” (Mirati Therapeutics, Inc., priority 2022, published 2026).

How the values were obtained:
[1] = test system: KRas-mediated phosphorylation of ERK in HCT116 cells; assay: Inhibition of KRas-mediated phosphorylation of ERK (Cisbio HTRF pERK), HCT116 cells; format: cell-based; conditions: Homo sapiens; for inhibition at 0.1 µM: HCT-116, 3 h, single point, 100 nM compound, 3 hrs
Outline: (§1)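 A cell-based HTRF pERK assay: ten-point, threefold titrations beginning at 10 uM were applied for 3 hrs, with 0.2 uM Trametinib wells as the minimum control. Cells were lysed cold, and lysate was incubated with the antibody pair for 2 hrs before reading.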

[2] = test system: KRas-mediated phosphorylation of ERK in H358 cells; assay: Inhibition of KRas-mediated phosphorylation of ERK (Cisbio HTRF pERK), H358 cells; format: cell-based; conditions: Homo sapiens; for inhibition at 0.1 µM: NCI-H358, 3 h, single point, 100 nM compound, 3 hrs
Outline: (§2)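 Using 6,000 cells per well, compounds are applied for 3 hrs and cells then lysed at 4° C with shaking for 40 mins. Phospho-ERK is measured by HTRF after 2 hrs of lysate incubation with the d2/Cryptate antibody mixture.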

KRas^G12V = biological target: T1, KRas^G12V (Homo sapiens, UniProt P01116, G12V); assay: KRas binding assay (TR-FRET tracer displacement), KRas G12V
T1 construct: Biotinylated KRas (corresponding to amino acids 1-169, produced at Accelegan Inc.); biotin (biotinylated); purchased Accelegan Inc

[3] = test system: KRas-mediated phosphorylation of ERK in H460 cells; assay: Inhibition of KRas-mediated phosphorylation of ERK (Cisbio HTRF pERK), H460 cells; format: cell-based; conditions: Homo sapiens; for inhibition at 0.1 µM: NCI-H460, 3 h, single point, 100 nM compound, 3 hrs
Outline: as §2

[4] = test system: KRas-mediated phosphorylation of ERK in H727 cells; assay: Inhibition of KRas-mediated phosphorylation of ERK (Cisbio HTRF pERK), H727 cells; format: cell-based; conditions: Homo sapiens; for IC50: NCI-H727, H727 cells, HTRF pERK; for inhibition at 0.1 µM: NCI-H727, 3 h, single point, 100 nM compound, 3 hrs, H727 cells
Outline: as §2

KRas^G12R = biological target: T2, KRas^G12R (Homo sapiens, UniProt P01116, G12R); assay: KRas binding assay (TR-FRET tracer displacement), KRas G12R
T2 construct: Biotinylated KRas (corresponding to amino acids 1-169, produced at Accelegan Inc.); biotin (biotinylated); purchased Accelegan Inc

[5] = test system: KRas-mediated phosphorylation of ERK in A549 cells; assay: Inhibition of KRas-mediated phosphorylation of ERK (Cisbio HTRF pERK), A549 cells; format: cell-based; conditions: Homo sapiens; for inhibition at 0.1 µM: A549, 3 h, single point, 100 nM compound, 3 hrs
Outline: as §1

KRas^G12D = biological target: T3, KRas^G12D (Homo sapiens, UniProt P01116, G12D); assay: KRas binding assay (TR-FRET tracer displacement), KRas G12D
T3 construct: Biotinylated KRas (corresponding to amino acids 1-169, produced at Accelegan Inc.); biotin (biotinylated); purchased Accelegan Inc

[6] = test system: KRas-mediated phosphorylation of ERK in AsPC-1 cells; assay: Inhibition of KRas-mediated phosphorylation of ERK (Cisbio HTRF pERK), AsPC-1 cells; format: cell-based; conditions: Homo sapiens; for IC50: ASPC1, AsPC-1 cells, HTRF pERK; for inhibition at 0.1 µM: ASPC1, 3 h, single point, 100 nM compound, 3 hrs, AsPC-1 cells
Outline: as §2

T1 sequence (P01116 1-169 isoform P01116-2 G12V): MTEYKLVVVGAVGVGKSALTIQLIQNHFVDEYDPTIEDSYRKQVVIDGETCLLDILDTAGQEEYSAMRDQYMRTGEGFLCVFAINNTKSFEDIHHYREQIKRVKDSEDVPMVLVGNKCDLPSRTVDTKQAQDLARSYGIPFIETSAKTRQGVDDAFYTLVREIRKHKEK
T2 sequence (P01116 1-169 isoform P01116-2 G12R): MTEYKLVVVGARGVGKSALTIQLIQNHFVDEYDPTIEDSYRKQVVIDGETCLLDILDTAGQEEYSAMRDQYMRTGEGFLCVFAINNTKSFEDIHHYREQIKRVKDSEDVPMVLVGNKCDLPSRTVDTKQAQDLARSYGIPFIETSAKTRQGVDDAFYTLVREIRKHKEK
T3 sequence (P01116 1-169 isoform P01116-2 G12D): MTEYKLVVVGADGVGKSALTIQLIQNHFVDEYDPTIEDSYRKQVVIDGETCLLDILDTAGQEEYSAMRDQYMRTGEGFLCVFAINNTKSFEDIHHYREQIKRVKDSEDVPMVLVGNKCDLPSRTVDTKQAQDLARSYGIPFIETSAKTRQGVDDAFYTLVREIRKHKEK

Row | SMILES | IC50 (KRas^G12V) | IC50 [4] | IC50 (KRas^G12R) | IC50 (KRas^G12D) | IC50 [6] | IC50 ([1]; HCT-116, HTRF pERK) | IC50 ([2]; NCI-H358, HTRF pERK) | IC50 ([3]; NCI-H460, HTRF pERK) | IC50 ([5]; HTRF pERK) | inhibition at 0.1 µM [1] | inhibition at 0.1 µM [2] | inhibition at 0.1 µM [3] | inhibition at 0.1 µM [5] | inhibition at 0.1 µM [4] | inhibition at 0.1 µM [6]
1 | CCc1c(F)ccc2cc(O)cc(-c3ncc4c(N5CCC(C)(O)C(F)(F)CC5)nc(OC[C@@]56CCCN5C[C@H](F)C6)nc4c3F)c12 (stereo partly drawn) [Example 605, 1-(7-(8-ethyl-7-fluoro-3-hydroxynaphthalen-1-yl)-8-fluoro-2-(((2R,7aS)-2-fluorotetrahydro-1H-pyrrolizin-7a(5H)-yl)methoxy)pyrido[4,3-d]pyrimidin-4-yl)-5,5-difluoro-4-methylazepan-4-ol] | 71 nM | 946 nM | 47 nM | 119 nM | 1560 nM | – | – | – | – | -12% | 3% | 7% | 20% | – | –
2 | CCc1c(F)ccc2cc(O)cc(-c3ncc4c(N5C[C@@H]6C[C@]6(c6nc(C)no6)C5)nc(OC[C@@]56CCCN5C[C@H](F)C6)nc4c3F)c12 [Example 607, 5-ethyl-6-fluoro-4-(8-fluoro-2-(((2R,7aS)-2-fluorotetrahydro-1H-pyrrolizin-7a(5H)-yl)methoxy)-4-((1R,5R)-1-(3-methyl-1,2,4-oxadiazol-5-yl)-3-azabicyclo[3.1.0]hexan-3-yl)pyrido[4,3-d]pyrimidin-7-yl)naphthalen-2-ol] | 53 nM | 1770 nM | 99 nM | 151 nM | 1740 nM | – | – | – | – | 24% | 9% | 62% | 34% | – | –
3 | CCc1c(F)ccc2cc(O)cc(-c3ncc4c(N5CCCC(Cn6cccn6)C5)nc(OC[C@@]56CCCN5C[C@H](F)C6)nc4c3F)c12 (stereo partly drawn) [Example 610, 4-(4-(3-((1H-pyrazol-1-yl)methyl)piperidin-1-yl)-8-fluoro-2-(((2R,7aS)-2-fluorotetrahydro-1H-pyrrolizin-7a(5H)-yl)methoxy)pyrido[4,3-d]pyrimidin-7-yl)-5-ethyl-6-fluoronaphthalen-2-ol] | 28 nM | 660 nM | 48 nM | 66 nM | 884 nM | 1010 nM | 662 nM | 256 nM | 1300 nM | -5% | 1% | 31% | 10% | – | –
4 | CCc1c(F)ccc2cc(O)cc(-c3ncc4c(NCc5cc(C(=O)N(C)C)nn5CC#N)nc(OC[C@@]56CCCN5C[C@H](F)C6)nc4c3F)c12 [Example 657, 1-(cyanomethyl)-5-(((7-(8-ethyl-7-fluoro-3-hydroxynaphthalen-1-yl)-8-fluoro-2-(((2R,7aS)-2-fluorotetrahydro-1H-pyrrolizin-7a(5H)-yl)methoxy)pyrido[4,3-d]pyrimidin-4-yl)amino)methyl)-N,N-dimethyl-1H-pyrazole-3-carboxamide] | < 2 nM | 2660 nM | < 2 nM | 4 nM | – | – | – | – | – | -9% | 27% | -18% | -2% | 19% | -24%
5 | CCc1c(F)ccc2cc(O)cc(-c3ncc4c(N5CCCn6nc(S(=O)(=O)NC)cc6C5)nc(OC[C@@]56CCCN5C[C@H](F)C6)nc4c3F)c12 [Example 676, 5-(7-(8-ethyl-7-fluoro-3-hydroxynaphthalen-1-yl)-8-fluoro-2-(((2R,7aS)-2-fluorohexahydro-1H-pyrrolizin-7a-yl)methoxy)pyrido[4,3-d]pyrimidin-4-yl)-N-methyl-5,6,7,8-tetrahydro-4H-pyrazolo[1,5-a][1,4]diazepine-2-sulfonamide] | 6 nM | 5130 nM | 5 nM | 2 nM | 996 nM | – | – | – | – | 4% | -4% | 11% | 19% | – | –
6 | CCc1c(F)ccc2cc(O)cc(-c3ncc4c(N5CCC[C@@](C)(O)C5)nc(OCC56CNCC5C6)nc4c3F)c12 (stereo partly drawn) [Example 695, (3R)-1-(2-((3-azabicyclo[3.1.0]hexan-1-yl)methoxy)-7-(8-ethyl-7-fluoro-3-hydroxynaphthalen-1-yl)-8-fluoropyrido[4,3-d]pyrimidin-4-yl)-3-methylpiperidin-3-ol] | 5 nM | 2690 nM | 8 nM | 4 nM | 1110 nM | – | – | – | – | 13% | -1% | -2% | 16% | – | –
7 | CCc1c(F)ccc2cc(O)cc(-c3ncc4c(N5CCC[C@@](C)(O)C5)nc(OCC56CNCCC5C6)nc4c3F)c12 (stereo partly drawn) [Example 697, (3R)-1-(2-((3-azabicyclo[4.1.0]heptan-1-yl)methoxy)-7-(8-ethyl-7-fluoro-3-hydroxynaphthalen-1-yl)-8-fluoropyrido[4,3-d]pyrimidin-4-yl)-3-methylpiperidin-3-ol] | 6 nM | 4750 nM | 7 nM | 4 nM | 1860 nM | – | – | – | – | 1% | 5% | 19% | -4% | – | –

Further lines, with some results ahead:

Row | IC50 (KRas^G12V) | IC50 [4] | IC50 (KRas^G12R) | IC50 (KRas^G12D) | IC50 [6] | IC50 ([1]; HCT-116, HTRF pERK) | IC50 ([2]; NCI-H358, HTRF pERK) | IC50 ([3]; NCI-H460, HTRF pERK) | IC50 ([5]; HTRF pERK) | SMILES | inhibition at 0.1 µM [1] | inhibition at 0.1 µM [2] | inhibition at 0.1 µM [3] | inhibition at 0.1 µM [5] | inhibition at 0.1 µM [4] | inhibition at 0.1 µM [6]
8 | 5 nM | 476 nM | 9 nM | 4 nM | 101 nM | – | – | – | – | CCc1c(F)ccc2cc(O)cc(-c3ncc4c(N5CCC[C@@](C)(O)C5)nc(OCC56CC5CCN(C)C6)nc4c3F)c12 (stereo partly drawn) [Example 701, (3R)-1-(7-(8-ethyl-7-fluoro-3-hydroxynaphthalen-1-yl)-8-fluoro-2-((3-methyl-3-azabicyclo[4.1.0]heptan-1-yl)methoxy)pyrido[4,3-d]pyrimidin-4-yl)-3-methylpiperidin-3-ol] | 0% | 6% | 15% | 20% | – | –
9 | 7 nM | 982 nM | 14 nM | 5 nM | 342 nM | – | – | – | – | CCc1c(F)ccc2cc(O)cc(-c3ncc4c(N5CCC[C@@](C)(O)C5)nc(OCC5(CN(C)C)CC5CC)nc4c3F)c12 (stereo partly drawn) [Example 703, (3R)-1-(2-((1-((dimethylamino)methyl)-2-ethylcyclopropyl)methoxy)-7-(8-ethyl-7-fluoro-3-hydroxynaphthalen-1-yl)-8-fluoropyrido[4,3-d]pyrimidin-4-yl)-3-methylpiperidin-3-ol] | 0% | -10% | 4% | 47% | – | –
10 | 5 nM | 223 nM | 11 nM | 5 nM | 53 nM | – | – | – | – | CCc1c(F)ccc2cc(O)cc(-c3ncc4c(N5CCC[C@@](C)(O)C5)nc(OCC5(CN(C)C)CC5(C)C)nc4c3F)c12 (stereo partly drawn) [Example 704, (3R)-1-(2-((1-((dimethylamino)methyl)-2,2-dimethylcyclopropyl)methoxy)-7-(8-ethyl-7-fluoro-3-hydroxynaphthalen-1-yl)-8-fluoropyrido[4,3-d]pyrimidin-4-yl)-3-methylpiperidin-3-ol] | 19% | 47% | 40% | 26% | 21% | 25%
11 | 13 nM | 1220 nM | 30 nM | 12 nM | 598 nM | – | – | – | – | CCc1c(F)ccc2cc(O)cc(-c3ncc4c(N5CCC[C@@](C)(O)C5)nc(OCC5(CN(C)C)CC56CCC6)nc4c3F)c12 (stereo partly drawn) [Example 705, (3R)-1-[2-[[2-[(dimethylamino)methyl]spiro[2.3]hexan-2-yl]methoxy]-7-(8-ethyl-7-fluoro-3-hydroxy-1-naphthyl)-8-fluoro-pyrido[4,3-d]pyrimidin-4-yl]-3-methyl-piperidin-3-ol] | -3% | 34% | 0% | 29% | 3% | 6%
